Results from ChEMBL document CHEMBL4118242, “Computer-aided discovery and biological characterization of human lactate dehydrogenase 5 inhibitors with anti-osteosarcoma activity” (Bioorg Med Chem Lett, 2018).
Active and inactive are the calls of the source. The calls are words filed in the database; no cut-off is given here.

What was measured:
[1] = molecular target: T1, L-lactate dehydrogenase A chain (Homo sapiens, UniProt P00338); assay: Inhibition of human LDH5 at 10 uM using pyruvate as substrate after 10 mins
[2] = molecular target: T1, L-lactate dehydrogenase A chain; assay: Inhibition of human LDH5 using pyruvate as substrate after 10 mins
[3] = molecular target: T1, L-lactate dehydrogenase A chain; assay: Inhibition of human LDH5 at 1 uM using pyruvate as substrate after 10 mins
MG-63 [4] = assay: Antiproliferative activity against human MG63 cells at 10 uM after 72 hrs by MTT assay; format: functional, cell-based
MG-63 [5] = assay: Antiproliferative activity against human MG63 cells at 4 uM after 72 hrs by MTT assay; format: functional, cell-based
[6] = molecular target: T1, L-lactate dehydrogenase A chain; assay: Inhibition of LDH5 in human MG63 cells assessed as increase in oxygen consumption rate at 1 to 10 uM after 4 hrs; format: cell-based
MG-63 [7] = assay: Antiproliferative activity against human MG63 cells after 72 hrs by MTT assay; format: functional, cell-based; conditions: MG-63, 72 h
[8] = molecular target: T1, L-lactate dehydrogenase A chain; assay: Inhibition of LDH5 in human MG63 cells assessed as induction of ROS generation at 5 to 10 uM after 4 hrs by DCFH-DA staining-based fluorescence assay; format: cell-based
[9] = molecular target: T1, L-lactate dehydrogenase A chain; assay: Inhibition of LDH5 in human MG63 cells assessed as decrease in extracellular acidification rate after 4 hrs; format: cell-based
[10] = molecular target: T1, L-lactate dehydrogenase A chain; assay: Inhibition of LDH5 in human MG63 cells assessed as decrease in lactate formation after 4 hrs; format: cell-based
MG-63 [11] = assay: Antiproliferative activity in human MG63 cells at 4 uM after 24 to 72 hrs by IncuCyte zoom live cell imaging method; format: functional, cell-based
[12] = molecular target: T1, L-lactate dehydrogenase A chain; assay: Inhibition of LDH5 in human MG63 cells assessed as increase in oxygen consumption rate at 1 uM after 4 hrs; format: cell-based

Row | EC50 [2] | inhibition [3] | Structure (SMILES) | inhibition [1] | Activity (MG-63 [4]) | Activity (MG-63 [5]) | IC50 (MG-63 [7]) | further results
1 |  |  | COc1ccc([C@@H](NCc2c[nH]nc2-c2ccc(F)cc2)c2ccncc2)cc1 | inactive |  |  |  | 
2 | 670 nM | Active | Cc1cccc(OC[C@H](O)CN2CCN(CCN3C(=O)c4cccc5cccc(c45)C3=O)CC2)c1C |  | Active | inactive |  | 
3 |  |  | Cc1nc(C)c(CC(=O)N2CCN(CCOc3ccccc3)CC2)c(=O)[nH]1 | inactive |  |  |  | 
4 | 390 nM | Active | COc1cccc(CN2CCCCC23CC3)c1OC[C@@H](O)CN1CCOCC1 |  | Active |  | 3180 nM | Activity [6]: Active; Activity [8]: Active; inhibition [9]: Dose-dependent effect; inhibition [10]: Dose-dependent effect; Activity (MG-63 [11]): Active
5 |  |  | O=C1N[C@](c2ccc(N3CCOCC3)cc2)(c2ccsc2)CC(O)=C1Sc1ccccc1Cl |  |  |  | 660 nM | Activity [12]: Active
6 |  |  | O=C(Cn1ccnc1-c1ccccc1)NC[C@@H]1COc2ccccc2O1 |  | Active | inactive |  | 
